Experiments:
Homo sapiens [1] = species: Homo sapiens; assay: Selectivity for FAAH over TGH
[2] = target: Fatty-acid amide hydrolase 1 (Rattus norvegicus) (UniProt P97612); assay: Inhibition of rat recombinant FAAH expressed in Escherichia coli by [14C]oleamide breakdown
Homo sapiens [3] = species: Homo sapiens; assay: Selectivity for FAAH over KIAA1363
Liver carboxylesterase 1 = target: T1, Liver carboxylesterase 1 (Homo sapiens, UniProt P23141); assay: Inhibition of TGH
T1 sequence (P23141 whole entry): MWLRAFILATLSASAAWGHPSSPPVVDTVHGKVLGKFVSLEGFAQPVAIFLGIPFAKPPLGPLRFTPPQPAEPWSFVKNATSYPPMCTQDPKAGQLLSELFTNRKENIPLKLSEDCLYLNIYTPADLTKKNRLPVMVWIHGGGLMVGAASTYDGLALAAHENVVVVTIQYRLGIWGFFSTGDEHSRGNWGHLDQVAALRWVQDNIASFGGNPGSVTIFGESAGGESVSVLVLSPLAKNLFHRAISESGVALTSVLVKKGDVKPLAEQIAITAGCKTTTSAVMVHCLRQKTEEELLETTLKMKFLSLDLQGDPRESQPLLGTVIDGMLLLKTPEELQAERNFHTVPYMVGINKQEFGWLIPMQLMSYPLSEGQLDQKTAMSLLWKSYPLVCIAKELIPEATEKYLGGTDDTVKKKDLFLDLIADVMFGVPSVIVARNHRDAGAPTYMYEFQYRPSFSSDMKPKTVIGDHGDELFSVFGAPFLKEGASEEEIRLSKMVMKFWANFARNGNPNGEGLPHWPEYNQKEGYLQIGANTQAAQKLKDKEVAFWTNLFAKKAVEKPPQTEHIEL

[4] = target: T2, Neutral cholesterol ester hydrolase 1 (Homo sapiens, UniProt Q6PIU2); assay: Inhibition of KIAA1363
T2 sequence (Q6PIU2 whole entry): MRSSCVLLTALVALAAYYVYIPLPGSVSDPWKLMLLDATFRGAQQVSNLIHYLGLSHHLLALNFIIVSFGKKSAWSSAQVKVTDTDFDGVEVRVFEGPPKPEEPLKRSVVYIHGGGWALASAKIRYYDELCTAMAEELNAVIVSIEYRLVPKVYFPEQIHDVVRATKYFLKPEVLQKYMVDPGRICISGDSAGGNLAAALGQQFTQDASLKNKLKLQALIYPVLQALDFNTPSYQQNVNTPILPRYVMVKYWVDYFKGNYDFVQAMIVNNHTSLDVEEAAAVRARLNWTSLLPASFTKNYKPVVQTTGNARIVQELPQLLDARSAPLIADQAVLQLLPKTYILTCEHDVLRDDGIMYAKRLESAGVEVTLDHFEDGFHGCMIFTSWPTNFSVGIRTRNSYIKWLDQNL

[5] = target: T3, Fatty-acid amide hydrolase 1 (Homo sapiens, UniProt O00519); assay: Inhibition of human FAAH expressed in COS7 cells by [14C]oleamide breakdown; format: cell-based, COS-7
T3 sequence (O00519 whole entry): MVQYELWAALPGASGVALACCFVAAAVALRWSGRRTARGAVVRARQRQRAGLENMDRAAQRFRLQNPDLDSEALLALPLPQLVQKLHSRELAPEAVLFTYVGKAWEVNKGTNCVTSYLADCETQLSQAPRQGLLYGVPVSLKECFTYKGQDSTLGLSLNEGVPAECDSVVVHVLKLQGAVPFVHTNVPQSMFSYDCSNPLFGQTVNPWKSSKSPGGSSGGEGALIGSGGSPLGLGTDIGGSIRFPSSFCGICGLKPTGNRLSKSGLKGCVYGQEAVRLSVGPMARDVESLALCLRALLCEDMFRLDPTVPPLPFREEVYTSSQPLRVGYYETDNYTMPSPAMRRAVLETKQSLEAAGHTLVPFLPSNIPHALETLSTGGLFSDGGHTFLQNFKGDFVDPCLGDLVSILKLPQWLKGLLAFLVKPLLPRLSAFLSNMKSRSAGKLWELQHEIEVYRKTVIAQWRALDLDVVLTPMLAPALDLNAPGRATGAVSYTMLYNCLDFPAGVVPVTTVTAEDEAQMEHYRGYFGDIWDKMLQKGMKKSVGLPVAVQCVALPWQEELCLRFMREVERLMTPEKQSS

Fatty-acid amide hydrolase 1 (Rattus norvegicus), sequence (P97612 whole entry, looked up): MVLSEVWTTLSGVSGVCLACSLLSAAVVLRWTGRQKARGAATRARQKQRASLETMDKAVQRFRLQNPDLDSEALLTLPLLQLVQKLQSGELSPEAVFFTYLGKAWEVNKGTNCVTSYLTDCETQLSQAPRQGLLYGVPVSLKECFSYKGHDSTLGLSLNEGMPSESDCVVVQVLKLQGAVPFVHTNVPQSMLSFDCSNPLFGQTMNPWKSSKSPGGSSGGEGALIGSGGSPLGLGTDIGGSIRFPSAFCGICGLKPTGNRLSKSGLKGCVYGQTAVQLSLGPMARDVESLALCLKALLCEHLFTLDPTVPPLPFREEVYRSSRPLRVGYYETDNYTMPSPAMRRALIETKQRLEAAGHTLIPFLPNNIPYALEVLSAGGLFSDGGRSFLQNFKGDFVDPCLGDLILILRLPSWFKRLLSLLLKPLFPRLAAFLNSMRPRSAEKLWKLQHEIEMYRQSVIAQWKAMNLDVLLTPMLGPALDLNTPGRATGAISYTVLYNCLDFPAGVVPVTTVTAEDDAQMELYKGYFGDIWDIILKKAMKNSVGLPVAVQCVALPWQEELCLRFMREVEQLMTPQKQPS

| Compound | Ratio IC50 (Homo sapiens [1]) | IC50 [2] [nM] | Ki [2] [nM] | Ratio IC50 (Homo sapiens [3]) | IC50 (Liver carboxylesterase 1) [nM] | IC50 [4] [nM] | Ki [5] [nM] |
| --- | --- | --- | --- | --- | --- | --- | --- |
| O=C(O)c1ccc(-c2cnc(C(=O)CCCCCCc3ccccc3)o2)nc1 | 60 | 50 | 7 | > 2000 | 3000 | > 100000 | 8 |
| O=C(CCCCCCc1ccccc1)c1ncc(-c2cc(F)ccn2)o1 | 240 | 2.5 | 2 | > 40000 | 600 | > 100000 | – |
| COc1cc(-c2cnc(C(=O)CCCCCCc3ccccc3)o2)nc(OC)n1 | 0.2 | 400 | 5 | > 250 | 70 | > 100000 | – |
| O=C(CCCCCCc1ccccc1)c1ncc(-c2cc([N+](=O)[O-])ccn2)o1 | 125 | 1.6 | 3.2 | > 63000 | 200 | > 100000 | – |
| NC(=O)c1cccc(-c2cnc(C(=O)CCCCCCc3ccccc3)o2)c1 | > 40 | 2700 | 6 | > 40 | > 100000 | > 100000 | – |
| O=C(CCCCCCc1ccccc1)c1ncc(Br)o1 | 0.5 | 190 | – | 70 | 100 | 13000 | – |
| O=C(O)c1ccc(-c2cnc(C(=O)CCCCCCc3ccccc3)o2)o1 | > 120 | 850 | 15 | > 120 | > 100000 | > 100000 | – |
| Cc1ccnc(-c2cnc(C(=O)CCCCCCc3ccccc3)o2)c1 | 2000 | 1 | 0.6 | > 100000 | 2000 | > 100000 | – |
| O=C(O)c1cccc(-c2cnc(C(=O)CCCCCCc3ccccc3)o2)c1 | > 70 | 1400 | 5 | > 70 | > 100000 | > 100000 | – |
| NC(=O)c1cnc(C(=O)CCCCCCc2ccccc2)o1 | 20 | 350 | – | > 300 | 7000 | > 100000 | – |
| COC(=O)c1ccnc(-c2cnc(C(=O)CCCCCCc3ccccc3)o2)c1 | 2000 | 0.6 | 1.3 | > 170000 | 900 | > 100000 | – |
| O=C(CCCCCCc1ccccc1)c1ncc(C(F)(F)F)o1 | 3 | 77 | – | > 1300 | 200 | > 100000 | – |
| O=C(CCCCCCc1ccccc1)c1ncc(-c2cc(=O)[nH]c(=O)[nH]2)o1 | 6200 | 5 | 12 | > 20000 | 30000 | > 100000 | – |
| N#Cc1ccnc(-c2cnc(C(=O)CCCCCCc3ccccc3)o2)c1 | 500 | 0.8 | 1.1 | > 125000 | 400 | > 100000 | – |
| COc1ccnc(-c2cnc(C(=O)CCCCCCc3ccccc3)o2)c1 | 300 | 1.7 | 0.8 | 59000 | 500 | > 100000 | – |
| NS(=O)(=O)c1cccc(-c2cnc(C(=O)CCCCCCc3ccccc3)o2)c1 | 0.5 | 400 | 2 | > 200 | 200 | > 100000 | – |
| O=C(CCCCCCc1ccccc1)c1ncc(-c2c[nH]c(=O)[nH]c2=O)o1 | 40 | 680 | 350 | > 150 | 30000 | > 100000 | – |
